System: human skin
Experiment: Human skin safety test: repeated insult patch test
Format: in vivo
Conditions: for Number of subjects showing reaction ±: grade ±
Experimental: In order to confirm that the extract of seed-removed milk thistle flowers according to the present invention is safe for human skin, a skin safety verification test was performed. To this end, a repeated insult patch test was conducted. Nourishing creams containing the seed-removed milk thistle extract of Example 1 in amounts of 0.1%, 0.5% and 1%, respectively, were prepared. Specifically, a water phase containing purified water, triethanolamine and propylene glycol was dissolved by heating to 70° C. and then emulsified by adding a solution obtained by dissolving beeswax, liquid paraffin, an oil component, an emulsifier and a preservative by heating to 70° C. After completion of emulsification, the solution was cooled to 45° C., and the seed-removed milk thistle flower extract was added thereto in amounts of 0.1%, 0.5% and 1% and dispersed therein, followed by cooling to 30° C. As the content of the extract of seed-removed milk thistle flowers was increased from 0.1% to 0.5% and 1%, the content of liquid paraffin was decreased from 9.91% to 9.51% and 9.01%, respectively, thereby preparing nourishing creams. Using the nourishing creams prepared as described above, a repeated insult patch test was conducted on the upper arm areas of 30 healthy adults every other day for a total of 9 times for 24 hours per time to determine whether the extract of seed-removed milk thistle flowers irritated the skin. The patch test was performed using a Finn chamber (Epitest Ltd., Finland). 15 μl of each of the external skin preparations was dropped into the chamber, and then the patch test was performed. Average degree of reaction=[[(reaction index×degree of reaction)/(total number of subjects×highest score (4)]×100]÷number of tests (9) [Equation 2] In the degree of reaction, ± represents a score of 1 point, […], and ++ represents a score of 4. When the average degree of reaction is less than 3, the corresponding composition is determined to be safe.

## CC(C)=CCC/C(C)=C/CC/C(C)=C/CC/C=C(\C)CC/C=C(\C)CCC=C(C)C [Control (squalene), squalene]
30 healthy adults, upper arm, 9 patch tests of 24 hours, Equation 2, less than 3 = safe
  Average degree of reaction: 0.18
Week 1, 1st test
  Number of subjects showing reaction ±: 1
Week 1, 2nd test
  Number of subjects showing reaction ±: 1

— US12409200B2, “Composition for treating hair loss or promoting hair growth comprising milk thistle flower extract as an active ingredient” (BioSpectrum, Inc., priority 2021, dated 2025)
